Measurements taken from patent publication US20130095122A1, “Peptides or Antibodies Which Bind to Melanoma Inhibitory Activity (MIA) Protein” (priority 2010, published 2013).

Assays:
[1] = molecular target: T1, MIA protein dimer (Homo sapiens, UniProt Q16674); test: Western blot analysis of MIA dimer bands; assay type: biochemical; settings: MIA preincubated with 1 μM peptide (FIG. 2B)
T1 construct: made in house; host or cells: cell-free Rapid Translation System RTS 500 E. coli HY Disulfite Kit (Roche)
T1 sequence (Q16674 25-131): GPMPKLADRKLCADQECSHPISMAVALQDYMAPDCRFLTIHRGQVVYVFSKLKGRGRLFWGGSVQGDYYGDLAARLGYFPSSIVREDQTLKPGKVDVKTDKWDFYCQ
Protocol: Protein samples were denaturated at 70° C. for 10 min after addition of reducing and denaturing Roti-Load buffer (Roth, Karlsruhe, Germany) and subsequently separated on sodium dodecyl sulfate 12.75% polyacrylamid gels (SDS-PAGE) (Invitrogen, Groningen, The Netherlands). In the multimerization studies, MIA protein (1 μg) was incubated with AR71 (2.5 μg) overnight at RT before being treated as described above. After transferring the proteins onto a polyvinylidene fluoride (PVDF) membrane (BioRad, Richmond, Va., USA), the membrane was blocked using 3% BSA/PBS for 1 h at RT and incubated with a 1:150 dilution of primary polyclonal rabbit anti MIA antibody (Biogenes, Berlin, Germany) in 3% BSA/PBS overnight at 4° C. After washing in PBS the membrane was incubated with a 1:2000 dilution of an […] coupled secondary antibody (Chemikon, Hofheim, Germany) for 2 h at RT. Finally, after washing steps, immunoreactions were visualized by nitro blue tetrazolium/5-bromo-4-chloro-3-indolyl phosphate (NBT/BCIP) (Invitrogen, Karlsruhe, Germany) staining.

[2] = tested on: Mel Im melanoma cells; test: Boyden chamber invasion assay (MIA activity); assay type: cell-based, human
Protocol: Invasion assays were performed in Boyden Chambers containing polycarbonate filters with 8-μm pore size (Neuro Probe, Gaithersburg, Md., USA) essentially as described previously.^13 Filters were coated with matrigel, a commercially available reconstituted basement membrane (diluted 1:3 in H2O; BD Bioscience, Bradford, Mass., USA). The lower compartment was filled with fibroblast-conditioned medium used as a chemo attractant. Mel Im melanoma cells were harvested by trypsinization for 2 min at RT, resuspended in DMEM without FCS at a density 2.5×10^4 cells/mL, and placed in the upper compartment of the chamber. Except for the control experiment with untreated cells and experiments where cells were only treated with the respective peptide, MIA was added to the cell suspension at a final concentration of 200 ng/mL. Peptide AR71 (sequence: Ac-FHWRYPLPLPGQ-NH2) was used at a final concentration of 1 μM. MIA expressing murine B16 melanoma cells stably co-transfected with Sig-AR71-HisTag containing pCMX-PL1 vector^27 and an antibiotic resistance comprising plasmid (pCDNA3), and the respective mock control were also investigated for their ability to migrate. Therefore, cells were harvested by trypsinization for 2 min at RT, resuspended in DMEM without FCS at a density 2.5×10^4 cells/mL, and placed in the upper compartment of the chamber. After incubation at 37° C. for 4 h filters were removed. Cells adhering to the lower surface of the filter were fixed, stained, and counted. Experiments were carried out in triplicates and repeated at least three times.

[3] = molecular target: T2, MIA (Homo sapiens, UniProt Q16674); test: NMR titration of 15N-labeled MIA with peptide; assay type: binding; settings: unlabeled peptide, increasing amounts
T2 sequence (Q16674 25-131): T1 sequence (Q16674 25-131)
Protocol: All spectra were recorded at 300 K and pH 7 on a Bruker DRX600 spectrometer equipped with a pulsed field gradient triple resonance probe. Water suppression in experiments recorded on samples in H2O was achieved by incorporation of a Watergate sequence into the various pulse sequences.^28-30 2D ^1H-^15N HSQC spectra with reduced signal loss due to fast exchanging protons were recorded using procedures described previously.^31 All spectra were processed with NMRPipe and analyzed with NMRView.^32-33 Data handling was performed with NMRView. Structure visualisation and superimpositions were done with PyMol (Delano, W. L., The PyMol Molecular Graphics System (2002) Delano Scientific, Palo Alto, Calif., USA).
The NMR titration of MIA with AR71 consisted of monitoring changes in chemical shifts and line widths of the backbone amide resonances of uniformly ^15N-enriched MIA samples as a function of ligand concentration.^34-37

[4] = tested on: murine B16 melanoma cells; test: In vivo metastasis assay, wt B16 cells injected into spleen, i.v. AR71 treatment; parameters: species or system mice; settings: i.v. 50 μg every 24 h
Protocol: Additionally, 1×10^5 wt mouse melanoma B16 cells suspended in a solution containing AR71 (1 mg/mL) and 0.9% NaCl, or NaCl alone for the control mice, respectively, were injected into the spleen of each animal (n=8 for treated mice, as well as for control without AR71). Peptide AR71 was injected i.v. (50 μg every 24 h). After nine days, the mice were sacrificed and the livers were excised. Following formalin fixation, tissues were embedded in paraffin. Afterwards, sections were prepared and stained using hematoxylin and eosin before being subjected to histological analysis.
Therefore, wild type murine B16 melanoma cells were injected into the spleen of C57B16 mice with the mice being subsequently treated with i.v. injections of AR71 (50 μg every 24 h). After nine days, the mice were sacrificed, the livers were resected and again tissue sections were prepared. […] Four representative histological liver sections (hematoxylin and eosin stained) of untreated and treated mice, respectively, are shown in FIG. 4E.

[5] = tested on: murine B16 melanoma cells; test: In vivo metastasis assay, Sig-AR71-HisTag expressing B16 clone injected into spleen; settings: mice injected with Sig-AR71-HisTag expressing clone
Protocol: To determine the effect of peptide AR71 on the metastatic potential of murine B16 melanoma cells in vivo, a previously developed mouse metastases model was used.^19 1×10^5 cells of the AR71-HisTag expressing B16 cell clone AR71-His K4 as well as the corresponding mock control cells were injected into the spleen of mice (n=8 for mock control cells as well as for AR71-HisTag K4 cells, respectively). After nine days, mice were sacrificed, the livers were resected and the number and size of visible black tumor nodules on the surface of the livers was noticed. Tissues were fixed in formalin and afterwards paraffin embedded sections were hematoxylin and eosin stained for histological analysis.
Nine days after injection of the cells into the spleen, the mice were sacrificed, the livers were resected and tissue sections were prepared. Here, the inventors used the stably transfected murine B16 melanoma cells with a Sig-AR71-HisTag containing construct. […] The interference of AR71-HisTag with MIA-MIA interaction was also confirmed in the HTFP assay using wells coated with MIA-biotin (data not shown). Subsequently, a Sig-AR71-HisTag clone as well as a corresponding mock control was injected into the spleen of C57B16 mice, respectively. […]

For “Ac-FHWRYPLPLPGQ-NH2 [AR71, FHWRYPLPLPGQ]”, the “reduction of MIA dimer bands” value [1] was “strong reduction of the dimer bands”, the “neutralization of the MIA effect on cell invasion” value ([2]; MIA 200 ng/mL pre-incubated with peptide 1 μM, Mel Im cells (FIG. 2C)) was “complete neutralization of the effect caused by MIA” and the “migratory behaviour of cells treated with peptide alone” value ([2]; peptide in absence of MIA, Mel Im cells) was “does not influence the migratory behaviour of melanoma cells”. The “binding of peptide to MIA (chemical shift perturbations)” value [3] was “MIA binds to this peptide ligand”, the “adverse effects on other organs and tissues” value ([4]; nine days) was “no adverse effects on other organs and tissues were observed” and the “average number of metastases in the liver compared to untreated control mice” value ([4]; nine days (FIG. 4D)) was “significant reduction of the average number of metastases in the liver”. The “adverse effects on other organs and tissues” value [5] was “No adverse effects”.
